In patent US20240294533A1, “2-(HET)ARYL-SUBSTITUTED CONDENSED HETEROCYCLE DERIVATIVES AS PEST CONTROL AGENTS” (Bayer Aktiengesellschaft, priority 2021, published 2024):

Legend:
Format in all cases: in vivo
Myzus persicae = Myzus persicae oral test; details: 4 ppm, after 5 days
Experimental: Myzus persicae—Oral Test Solvent: 100 parts by weight of acetone An appropriate active ingredient formulation is produced by dissolving 1 part by weight of active ingredient with the specified parts by weight of solvent and making the solution up to the desired concentration with water. 50 μl of the active ingredient formulation is transferred into microtitre plates and made up to a final volume of 200 μl with 150 μl of IPL41 insect medium (33%+15% sugar). Subsequently, the plates are sealed with parafilm, which a mixed population of green peach aphids (Myzus persicae) within a second microtitre plate is able to puncture and imbibe the solution. After 5 days, efficacy in % is determined. 100% means that all the aphids have been killed; 0% means that no aphids have been killed.

Plutella xylostella = Plutella xylostella spray test (PLUTMA), comparative; details: 168 h, 0.16 ppm, cabbage leaves, after 7 days
Source text: Plutella xylostella Spray Test (PLUTMA) Solvent: 14 parts by weight of dimethylformamide Emulsifier: alkylaryl polyglycol ether An appropriate active ingredient formulation is produced by dissolving 1 part by weight of active ingredient with the stated parts by weight of solvent and making the solution up to the desired concentration with water containing an emulsifier concentration of 1000 ppm. Further test concentrations are produced by diluting the formulation with emulsifier-containing water. If the addition of ammonium salts or/and penetrants is required, these are each added in a concentration of 1000 ppm to the formulation solution. Cabbage leaves (Brassica oleracea) are sprayed with an active ingredient formulation of the desired concentration and infected with larvae of the diamondback moth (Plutella xylostella). After 7 days, the kill in % is determined. 100% means that all caterpillars have been killed; 0% means that none of the caterpillars have been killed.

Boophilus microplus = Boophilus microplus injection test; details: 20 μg/tick, after 7 days, laying of fertile eggs
Experimental: Boophilus microplus—Injection Test Solvent: dimethyl sulfoxide An appropriate active ingredient formulation is produced by mixing 10 mg of active ingredient with 0.5 ml of solvent and diluting the concentrate with solvent to the desired concentration. 1 μl of the active ingredient solution is injected into the abdomen of 5 engorged adult female cattle ticks (Boophilus microplus). The ticks are transferred into dishes and kept in a climate-controlled room. Efficacy is checked after 7 days by laying of fertile eggs. Eggs which are not visibly fertile are stored in a climate-controlled cabinet until the larvae hatch after about 42 days. Efficacy of 100% means that none of the ticks has laid any fertile eggs; 0% means that all the eggs are fertile.

Nezara viridula = Nezara viridula spray test (infected barley plants sprayed); details: 100 g ai/ha, after 4 days
Source text: Nezara viridula—Spray Test Solvent: 52.5 parts by weight of acetone • 7 parts by weight of dimethylformamide Emulsifier: alkylaryl polyglycol ether An appropriate active ingredient formulation is produced by dissolving 1 part by weight of active ingredient with the stated parts by weight of solvent and making the solution up to the desired concentration with water containing an emulsifier concentration of 1000 ppm. Further test concentrations are produced by diluting the formulation with emulsifier-containing water. If the addition of ammonium salts or/and penetrants is required, these are each added in a concentration of 1000 ppm to the formulation solution. Barley plants (Hordeum vulgare) infected with larvae of the Southern green shield bug (Nezara viridula) are sprayed with an active ingredient formulation of the desired concentration. After 4 days, efficacy in % is determined. 100% means that all of the shield bugs have been killed; 0% means that none of the shield bugs have been killed.

Diabrotica balteata = Diabrotica balteata drench test; details: 20 ppm, soil drench, maize, after 8 days
Source text: Diabrotica balteata—Drench Test Solvent: 7 parts by weight of dimethylformamide Emulsifier: 2 parts by weight of alkylaryl polyglycol ether An appropriate active ingredient formulation is produced by mixing 1 part by weight of active ingredient with the specified amounts of solvent and emulsifier, and diluting the concentrate to the desired concentration with water, it being necessary to take account of the volume of soil which is drenched. It should be ensured that a concentration of 40 ppm of emulsifier in the soil is not exceeded. Further test concentrations are produced by diluting with water. 5 […] (Zea mays) in each case are sown into pots filled with earth, and the next day the pots are watered with the active ingredient preparation of the desired concentration. After one day, about 25 L2 larvae of the banded cucumber beetle (Diabrotica balteata) are added. After 8 days, efficacy in % is determined. 100% means that all 5 plants have germinated and grown; 0% means that none of the plants has emerged.

Spodoptera frugiperda = Spodoptera frugiperda spray test (maize leaf discs); details: Spodoptera frugiperda, foliar, 168 h, after 7 days, read-out: efficacy
Outline: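 Maize leaf discs sprayed with compound formulated in acetone/DMF with alkylaryl polyglycol ether emulsifier (1000 ppm) in water, then infested with fall armyworm caterpillars after drying. Efficacy (% caterpillars killed) scored after 7 days; 100% means all killed, 0% none.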

Ctenocephalides felis = Ctenocephalides felis oral test; details: 100 ppm, oral via cattle blood, after 2 days
Experimental: Ctenocephalides felis—Oral Test Solvent: dimethyl sulfoxide An appropriate active ingredient formulation is produced by mixing 10 mg of active ingredient with 0.5 ml of dimethyl sulfoxide. Dilution with citrated cattle blood gives the desired concentration. About 20 unfed adult cat fleas (Ctenocephalides felis) are placed into a chamber which is closed at the top and bottom with gauze. Onto the chamber is placed a metal cylinder with its bottom end closed with parafilm. The cylinder contains the blood/active ingredient formulation, which can be imbibed by the fleas through the parafilm membrane. The cylinder is heated to 37° C., while the flea chambers are kept at room temperature. After 2 days, the kill rate in % is determined relative to the untreated control. 100% means that all of the fleas have been killed; 0% means that none of the fleas have been killed.

Phaedon cochleariae = Phaedon cochleariae spray test; details: 100 g/ha, Chinese cabbage leaf discs, after 7 days
Source text: Phaedon cochleariae—Spray Test
Solvent: 78.0 parts by weight of acetone • • 1.5 parts by weight of dimethylformamide
Emulsifier: alkylaryl polyglycol ether
An appropriate active ingredient formulation is produced by dissolving 1 part by weight of active ingredient with the stated parts by weight of solvent and making the solution up to the desired concentration with water containing an emulsifier concentration of 1000 ppm. Further test concentrations are produced by diluting the formulation with emulsifier-containing water.
Discs of Chinese cabbage leaves (Brassica pekinensis) are sprayed with an active ingredient formulation of the desired concentration and, after drying, populated with larvae of the mustard beetle (Phaedon cochleariae).
After 7 days, efficacy in % is determined. 100% means that all the beetle larvae have been killed; 0% means that no beetle larvae have been killed.

Compound: CCS(=O)(=O)c1ccc(-n2ncn(-c3ccc(Cl)cc3)c2=O)nc1-c1nc2cc(C(F)(F)C(F)(F)F)cnc2n1C [Example I-23]
- efficacy (Myzus persicae): 100%
- efficacy at 0.16 ppm (Plutella xylostella): 90%
- efficacy (Boophilus microplus): 90%
- efficacy (Nezara viridula): 100%
- efficacy (Diabrotica balteata): 100%
- pest or weed control at 100 g/ha (Spodoptera frugiperda): 100%
- efficacy (kill rate) (Ctenocephalides felis): 100%
- efficacy (Phaedon cochleariae): 100%
